The source of these data is patent US8680282B2, “Cyclic inhibitors of carnitine palmitoyltransferase and treating cancer” (University Health Network, priority 2007, dated 2014).

The structures appear in SMILES notation.

What all share (assay): Cancer cell growth inhibition, SRB assay
What all share (type): cell-based, human

Assay [1] relates to COLO-205. The settings on record: Homo sapiens, 144 h; COLO-205 (Colon); SRB at Day 6; triplicate.
For assay [2], the system named is MCF-7. The note with it: Homo sapiens, MCF7, 144 h; MCF-7 (Breast); SRB at Day 6; triplicate. A digest of the protocol:
(§1)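 SRB, day 6. Seeding 1,500-5,000 cells/well; 24 h later medium changed to DMEM/3% FBS; compound added, DMSO 0.1% final. TCA fix, SRB stain, A570; GI50 vs DMSO control.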

The test system of assay [3] is SW626. The settings on record: Homo sapiens, 144 h; SW626 (Ovarian); SRB at Day 6; triplicate. In outline:
as §1

In assay [4] the test system is H358. The note with it: Homo sapiens, NCI-H358, 144 h; H358 (Lung); SRB at Day 6; triplicate. In outline:
as §1

Assay [5] concerns SW620. The note with it: Homo sapiens, SW-620, 144 h; SW620 (Colon); SRB at Day 6; triplicate.
Assay [6] has as its system A549. The settings on record: Homo sapiens, 144 h; A549 (Lung); SRB at Day 6; triplicate.
For assay [7], the system named is PC-3. The settings on record: Homo sapiens, 144 h; PC-3 (Prostate); SRB at Day 6; triplicate. In outline:
as §1

Assay [8] deals with A172. The settings on record: Homo sapiens, A 172, 144 h; A172 (Brain); SRB at Day 6; triplicate. In outline: as §1

For the compound `CCCCCc1ccc(S(=O)(=O)NC2(CC(=O)O)C[N+](C)(C)C2)cc1` [Example S29, 3-(carboxymethyl)-1,1-dimethyl-3-(4-pentylphenylsulfonamido)-azetidinium 2,2,2-trifluoroacetate], the GI50 in assay [1] was 28 µM; in assay [2] it was 44 µM; in assay [3], over 50 µM; in assay [4] it was 86 µM; in assay [5] it was over 77 µM; in assay [6], over 50 µM. Besides, the 50% growth inhibitory concentration (GI50) in assay [7] and in assay [8] was over 50 µM each time.
On to `CCCCCCCCc1ccc(NC(=O)NC2(CC(=O)O)CC[N+](C)(C)C2)cc1` (stereo not drawn) [Example S18, 3-(carboxymethyl)-1,1-dimethyl-3-(3-(4-octylphenyl)ureido)-pyrrolidinium 2,2,2-trifluoroacetate], for which the GI50 in assay [1] amounted to 1.9 µM; in assay [2] it was 5.9 µM; in assay [3], 3.9 µM; in assay [4], 2.7 µM; in assay [5], 3.1 µM; in assay [6], 38 µM. Further, the GI50 is 6.6 µM in assay [7] and 1.9 µM in assay [8].
For the compound `CCCCCCCCc1ccc(NS(=O)(=O)NC2(CC(=O)O)CCCN(C)C2)cc1` (stereo not drawn) [Example S15, 3-(carboxymethyl)-1-methyl-3-(N-(4-octylphenyl)sulfamoylamino)-piperidinium 2,2,2-trifluoroacetate], the GI50 in assay [1] was determined as 21 µM; in assay [2], 15 µM; in assay [3], 33 µM; in assay [4], 12 µM; in assay [5] it was 27 µM; in assay [6] it was 7.5 µM. Also, the GI50 in assay [7] amounted to 2.8 µM; in assay [8] it was 2.7 µM.
Consider `CCCCCCCCc1ccc(NC(=O)NC2(CC(=O)O)CNC2)cc1` [Example S23, 3-(carboxymethyl)-3-(3-(4-octylphenyl)ureido)azetidinium 2,2,2-trifluoroacetate], for which the GI50 is 35 µM in assay [1]; 26 µM in assay [2]; 21 µM in assay [3]; 14 µM in assay [4]; 43 µM in assay [5]; over 50 µM in assay [6]. Further, the values for the concentration for 50% growth inhibition (GI50) in assay [7] and in assay [8] were 24 µM and 7.2 µM, respectively.
With `CCCCCCCCc1ccc(N(C)S(=O)(=O)NC2(CC(=O)O)CCC[N+](C)(C)C2)cc1` (stereo not drawn) [Example S30, 3-(carboxymethyl)-1,1-dimethyl-3-(N-methyl-N-(4-octylphenyl)-sulfamoylamino)piperidinium 2,2,2-trifluoroacetate], the GI50 is 1.6 µM in assay [1]; 3.1 µM in assay [2]; 21 µM in assay [3]; 2.9 µM in assay [4]; 3.5 µM in assay [5]; 1 µM in assay [6]. The results for the 50% growth inhibitory concentration (GI50) in assay [7] and in assay [8] were 0.7 µM and 0.6 µM, respectively.
For `CCCCCCCCc1ccc(NS(=O)(=O)NC2(CC(=O)O)CCN(C)CC2)cc1` [Example S7, 4-(carboxymethyl)-1-methyl-4-(N-(4-octylphenyl)sulfamoylamino)-piperidinium 2,2,2-trifluoroacetate], the GI50 in assay [1] was 74 µM; in assay [2], 27 µM; in assay [3] it was over 50 µM; in assay [4], 20 µM; in assay [5] it was over 50 µM; in assay [6], 52 µM. Also, the concentration for 50% growth inhibition (GI50) worked out at 6 µM in assay [7] and 15 µM in assay [8].
In the case of `CCCCCCCCc1ccc(NS(=O)(=O)NC2(CC(=O)O)CCC[N+](C)(C)C2)cc1` (stereo not drawn) [Example S16, 3-(carboxymethyl)-1,1-dimethyl-3-(N-(4-octylphenyl)sulfamoylamino)-piperidinium 2,2,2-trifluoroacetate], the GI50 amounted to 10 µM in assay [1]; 3.9 µM in assay [2]; 18 µM in assay [3]; 1.4 µM in assay [4]; 20 µM in assay [5]; 6.2 µM in assay [6]. In addition, the 50% growth inhibitory concentration (GI50) in assay [7] is 2.1 µM; in assay [8] it was 1.1 µM.
Consider `CCCCCCCCc1ccc(NC(=O)NC2(CC(=O)O)CCC[N+](C)(C)C2)cc1` (stereo not drawn) [Example S10, 3-(carboxymethyl)-1,1-dimethyl-3-(3-(4-octylphenyl)ureido)-piperidinium 2,2,2-trifluoroacetate], for which the GI50 was 1 µM in assay [1]; 5.1 µM in assay [2]; 2.7 µM in assay [3]; 1 µM in assay [4]; 2.5 µM in assay [5]; 73 µM in assay [6]. Moreover, the GI50 in assay [7] was 0.9 µM; in assay [8] it was 4.6 µM.
Regarding `CCCCCCCCc1ccc(NC(=O)NC2(CC(=O)O)C[N+](C)(C)C2)cc1` [Example S24, 3-(Carboxymethyl)-1,1-dimethyl-3-(3-(4-octylphenyl)ureido)azetidinium 2,2,2-trifluoroacetate], the GI50 in assay [1] is 28 µM; in assay [2] it was 27 µM; in assay [3], 63 µM; in assay [4] it was 19 µM; in assay [5] it was 44 µM; in assay [6] it was 36 µM. For the same compound, the GI50 in assay [7] was 21 µM; in assay [8], 41 µM.
